According to PubChem BioAssay (NCI):
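Where inhibition never reached the appropriate level, the endpoint shown equals the highest concentration tested. Otherwise, values were interpolated linearly from a five-concentration, 48-hour dose response in 96-well plates. The concentration for 50% growth inhibition is given as GI50. TGI denotes the concentration required for complete inhibition of growth.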

Tests used:
Test in all cases: NCI anticancer screen, dose series, 48 h; in the data active means GI50 below about 0.43 µM; inactive means the rest
[1] = tested on: SF-295 CNS
[2] = tested on: U251 CNS
[3] = tested on: KM12 colon
[4] = tested on: HOP-92 NSCLC
[5] = tested on: SR leukemia
[6] = tested on: OVCAR-8 ovarian
[7] = tested on: NCI-H460 lung
[8] = tested on: TK-10 renal
[9] = tested on: OVCAR-3 ovarian
[10] = tested on: MDA-MB-435
[11] = tested on: UO-31 renal
[12] = tested on: OVCAR-4 ovarian
[13] = tested on: RPMI-8226 leukemia
[14] = tested on: SK-OV-3 ovarian
[15] = tested on: A498 renal
[16] = tested on: IGROV1 ovarian
[17] = tested on: NCI-H522 lung
[18] = tested on: HCC-2998 colon
[19] = tested on: K-562 leukemia
[20] = tested on: UACC-257 melanoma
[21] = tested on: M14 melanoma
[22] = tested on: EKVX NSCLC
[23] = tested on: NCI-H226 lung
[24] = tested on: MALME-3M melanoma
[25] = tested on: SK-MEL-28 melanoma
[26] = tested on: A549 NSCLC
[27] = tested on: LOX IMVI melanoma
[28] = tested on: HCT-116 colon
[29] = tested on: HCT-15 colon
[30] = tested on: SW-620 colon
[31] = tested on: MCF7 breast
[32] = tested on: MDA-MB-231 breast
[33] = tested on: OVCAR-5 ovarian
[34] = tested on: SK-MEL-2 melanoma
[35] = tested on: DU-145 prostate
[36] = tested on: 786-0 renal
[37] = tested on: MDA-N
[38] = tested on: NCI-H23 lung
[39] = tested on: SF-539 CNS
[40] = tested on: CCRF-CEM leukemia
[41] = tested on: RXF 393 renal
[42] = tested on: ACHN renal
[43] = tested on: SNB-75 CNS
[44] = tested on: HL-60(TB) leukemia
[45] = tested on: BT-549 breast
[46] = tested on: SNB-19 CNS
[47] = tested on: CAKI-1 renal
[48] = tested on: COLO 205 colon
[49] = tested on: UACC-62 melanoma
[50] = tested on: PC-3 prostate
[51] = tested on: SK-MEL-5 melanoma
[52] = tested on: NCI/ADR-RES ovarian
[53] = tested on: MOLT-4 leukemia
[54] = tested on: HOP-62 NSCLC
[55] = tested on: SF-268 CNS
[56] = tested on: T-47D breast
[57] = tested on: HT29 colon
[58] = tested on: SN12C renal
[59] = tested on: HS 578T breast

CC1(C)OC(CCC#N)CN1C(=O)OCc1ccccc1 (configuration not stated)
> 100000 nM: TGI [44]
> 100 µM: TGI [1] | TGI [2] | TGI [3] | TGI [4] | TGI [5] | TGI [6] | TGI [7] | TGI [8] | TGI [9] | TGI [10] | TGI [11] | TGI [12] | TGI [13] | TGI [14] | TGI [15] | TGI [16] | TGI [17] | TGI [18] | TGI [19] | TGI [20] | TGI [21] | TGI [22] | TGI [23] | TGI [24] | TGI [25] | TGI [26] | TGI [27] | TGI [28] | TGI [29] | TGI [30] | TGI [31] | TGI [32] | TGI [33] | TGI [34] | TGI [35] | TGI [36] | TGI [37] | TGI [38] | TGI [39] | TGI [40] | TGI [41] | TGI [42] | TGI [43] | TGI [45] | TGI [46] | TGI [47] | TGI [48] | TGI [49] | TGI [50] | TGI [51] | TGI [52] | TGI [53]

CN(C)c1ccc(N=Nc2ccc(Br)cn2)c(O)c1
> 31 µM: TGI [9]
active: GI50 [2] 373 nM | GI50 [5] 149 nM | GI50 [7] 281 nM | GI50 [9] 320 nM | GI50 [54] 389 nM | GI50 [11] 160 nM | GI50 [55] 404 nM | GI50 [12] 186 nM | GI50 [16] 359 nM | GI50 [22] 382 nM | GI50 [27] 294 nM | GI50 [28] 325 nM | GI50 [29] 171 nM | GI50 [31] 385 nM | GI50 [36] 266 nM | GI50 [40] 227 nM | GI50 [42] 361 nM | GI50 [44] 260 nM | GI50 [48] 373 nM | GI50 [52] 362 nM | GI50 [53] 294 nM
66.7 µM: TGI [15]
> 32.8 µM: TGI [48]
> 40 µM: TGI [28]
> 73.6 µM: TGI [54]
> 21.3 µM: TGI [21]
> 82.6 µM: TGI [43]
8.8 µM: TGI [39]
7.84 µM: TGI [20]
2440 nM: TGI [44]
> 34.7 µM: TGI [7]
12.5 µM: TGI [52]
7.68 µM: TGI [23]
8.35 µM: TGI [49]
4.89 µM: TGI [12]
4.35 µM: TGI [51]
> 100 µM: TGI [1] | TGI [2] | TGI [3] | TGI [4] | TGI [6] | TGI [8] | TGI [10] | TGI [11] | TGI [55] | TGI [13] | TGI [14] | TGI [16] | TGI [18] | TGI [19] | TGI [22] | TGI [24] | TGI [25] | TGI [26] | TGI [29] | TGI [56] | TGI [30] | TGI [31] | TGI [57] | TGI [32] | TGI [33] | TGI [34] | TGI [58] | TGI [35] | TGI [36] | TGI [38] | TGI [59] | TGI [42] | TGI [45] | TGI [46] | TGI [47] | TGI [50]
> 28.6 µM: TGI [17]
> 46.7 µM: TGI [53]
7.06 µM: TGI [41]
inactive: GI50 [1] 635 nM | GI50 [3] 854 nM | GI50 [4] 1310 nM | GI50 [6] 549 nM | GI50 [8] 681 nM | GI50 [10] 1930 nM | GI50 [13] 528 nM | GI50 [14] 774 nM | GI50 [15] 3.21 µM | GI50 [17] 983 nM | GI50 [18] 476 nM | GI50 [19] 471 nM | GI50 [20] 2270 nM | GI50 [21] 691 nM | GI50 [23] 1080 nM | GI50 [24] 2650 nM | GI50 [25] 2050 nM | GI50 [26] 682 nM | GI50 [56] 568 nM | GI50 [30] 565 nM | GI50 [57] 603 nM | GI50 [32] 551 nM | GI50 [33] 1420 nM | GI50 [34] 5.28 µM | GI50 [58] 704 nM | GI50 [35] 653 nM | GI50 [38] 1130 nM | GI50 [39] 673 nM | GI50 [59] 5.78 µM | GI50 [41] 620 nM | GI50 [43] 1550 nM | GI50 [45] 737 nM | GI50 [46] 641 nM | GI50 [47] 790 nM | GI50 [49] 737 nM | GI50 [50] 556 nM | GI50 [51] 774 nM
> 34 µM: TGI [5]
